The record followed here is patent US6001997A, “Cephalosporins and homologues, preparations and pharmaceutical compositions” (priority 1990, dated 1999).

Assay [1] relates to E. coli (NCTC 1048). Nature of the assay: MIC values (minimum inhibitory concentration) against a sample E.coli organism. The assay is classed as cell-based. An excerpt:
(§1) The following Examples illustrate the preparation of compounds of the invention and intermediates thereto.

For assay [2], the system named is S. aureus (Oxford). Nature of the assay: MIC values (minimum inhibitory concentration) against a sample S.aureus organism. It is filed as cell-based. The note with it: in vitro.
Text: as §1

Where [3] appears, read: Escherichia coli, NCTC1048, in vitro, E. coli (NCTC 1048), read-out: MIC.
Setting [4] is: Staphylococcus aureus, read-out: MIC.

Converted amounts (≈) assume the structure as drawn. Counter-ions that a name gives are not always drawn. Like-named read-outs stand apart in the source and are kept apart here.

Usually MIC stands for the least concentration at which growth counts as inhibited. Regarding `CO/N=C(\C(=O)N[C@@H]1C(=O)N2C(C(=O)O)=C([C@@H]3CCCO3)CS[C@H]12)c1ccco1` [Example 28, Sodium (6R,7R)-7-[2-(furan-2-yl)-2-(Z)-methoxyimino-acetamido]-3-[(S)-tetrahydrofuran-2-yl]ceph-3-em-4-carboxylate], the MIC is greater than 32 µg/mL in assay [1] (setting [3]) and 0.5 µg/mL in assay [2] (setting [4]).
The matching figures for `CO/N=C(\C(=O)N[C@@H]1C(=O)N2C(C(=O)O)=C(C3CCOC3)CS[C@H]12)c1csc(N)n1` (some centres unmarked) [Example 13]: 1 µg/mL (≈ 2.21 µM) and 4 µg/mL (≈ 8.82 µM).
As for “sodium 7- [2- (2-aminothiazol-4-yl)-2- (Z)-methoxyimino-acetamido]-3- (tetrahydrofuran-2-yl) -1-carba-1-dethiaceph-3-em-4-carboxylate [Example 24]”, the MIC was 0.12 µg/mL in assay [1] (in vitro, E. coli (NCTC 1048)) and 1.00 µg/mL in assay [2].
In the case of `CO/N=C(\C(=O)N[C@@H]1C(=O)N2C(C(=O)[O-])=C(C3CC[C@@H](C)O3)CS[C@H]12)c1csc(N)n1.[Na+]` (mixture of isomers) [Example 27, Sodium (6R,7R)-7-12-(2-aminothiazol-4-yl)-2-(Z)-methoxy-iminoacetamidol-3-[(5R,2SR)-5-methyltetrahydrofuran-2-yl]ceph-3-em-4-carboxylate], the MIC in assay [1] (in vitro, E. coli (NCTC 1048)) came to 4.00 µg/mL; in assay [2] it was 1.00 µg/mL.
Consider `Nc1nc(/C(=N/OCC(=O)O)C(=O)N[C@@H]2C(=O)N3C(C(=O)O)=C(C4CCCO4)CS[C@H]23)cs1` (stereo partly drawn) [Example 21, (6R,7R)-7-[2-(2-aminothiazol-4-yl)-2-(Z)-carboxymethoxy-iminoacetamido]-3-[(RS)-tetrahydrofuran-2-yl]-ceph-3-em-4-carboxylic acid, disodium salt], for which the MIC in assay [1] (setting [3]) was 0.25 µg/mL; in assay [2] (setting [4]) it was 8 µg/mL.
With `CC/C=C(\C(=O)N[C@@H]1C(=O)N2C(C(=O)O)=C([C@@H]3CCCO3)CS[C@H]12)c1csc(N)n1` [Example 18, sodium (6R,7R)-7-[2-(2-aminothiazol-4-yl)-(Z)-pent-2-enamido]-3-[(S)-tetrahydrofuran-2-yl]ceph-3-em-4-carboxylate], the MIC was 16 µg/mL in assay [1] (setting [3]) and 1 µg/mL in assay [2] (setting [4]).
As for `COC[C@@H]1CCC(C2=C(C(=O)O)N3C(=O)[C@@H](NC(=O)/C(=N\OC)c4csc(N)n4)[C@H]3SC2)O1` (stereo partly drawn) [Example 17, sodium (6R,7R)-7-[2-(2-aminothiazol-4-yl)-2-(Z)-methoxyiminoacetamido]-3-(5-methoxymethyltetrahydrofuran-2-yl)ceph-3-em-4-carboxylate], the MIC in assay [1] (setting [3]) is 1 µg/mL; in assay [2] (setting [4]), 2 µg/mL.
The matching figures for `CO/N=C(\C(=O)N[C@@H]1C(=O)N2C(C(=O)O)=C(C3CCCO3)CS[C@H]12)c1csc(N)n1` (stereo partly drawn) [Example 1, Sodium (6R,7R)-7-[2-(2-Aminothiazol-4-yl)-2-(Z)-methoxy-iminoacetamido]-3-[(RS)-tetrahydrofuran-2-yl]ceph-3-em-4-carboxylate]: 0.5 µg/mL and 1 µg/mL.
Take `CO/N=C(\C(=O)N[C@@H]1C(=O)N2C(C(=O)O)=C([C@@H]3CCCO3)CS[C@H]12)c1csc(N)n1` [Example 7, Sodium (6R,7R)-7-[2-(2-aminothiazol-4-yl)-2-(Z)-methoxy-iminoacetamido]-3-[(S)-tetrahydrofuran-2-yl]ceph-3-em-4-carboxylate]: the values for the MIC in assay [1] (setting [3]) and in assay [2] (setting [4]) were 0.5 µg/mL and 1 µg/mL, respectively.
The matching figures for `CO/N=C(\C(=O)N[C@@H]1C(=O)N2C(C(=O)O)=C([C@H]3CCCO3)CS[C@H]12)c1csc(N)n1` [Example 9, sodium (6R,7R)-7-[2-(2-aminothiazol-4-yl)-2-(Z)-methoxy-iminoacetamido]-3-[(R)-tetrahydrofuran-2-yl]ceph-3-em-4-carboxylate]: 1 µg/mL and 0.5 µg/mL.
The like results for `Nc1nc(/C(=N/O)C(=O)N[C@@H]2C(=O)N3C(C(=O)O)=C(C4CCCO4)CS[C@H]23)cs1` (stereo partly drawn) [Example 5, (6R,7R)-7-[2-(2-Aminothiazol-4-yl)-2-(Z)-hydroxyiminoacet-amido]-3-[(RS)-tetrahydrofuran-2-yl]ceph-3-em-4-carboxylic acid] were, in that order, 0.5 µg/mL (≈ 1.14 µM) and 0.25 µg/mL (≈ 0.569 µM).
Turning to `CO/N=C(\C(=O)N[C@@H]1C(=O)N2C(C(=O)[O-])=C(C3CCCCO3)CS[C@H]12)c1csc(N)n1.[Na+]` (mixture of isomers) [Example 3, Sodium (6R,7R)-7-[2-(2-Aminothiazol-4-yl)-2-(Z)-methoxyiminoacetamido]-3-[(RS) -tetrahydropyran-2-yl]-ceph-3-em-4-carboxylate], the MIC stood at 2 µg/mL in assay [1] (Escherichia coli, NCTC1048) and 1 µg/mL in assay [2] (setting [4]).
The like results for `N[C@@H](C(=O)N[C@@H]1C(=O)N2C(C(=O)[O-])=C([C@@H]3CCCO3)CS[C@H]12)c1ccc(O)cc1.[Na+]` [Example 22, Sodium (6R,7R)-7-[(R)-2-Amino-2-(4-hydroxyphenyl)acetamido]-3-[(S)-tetrahydrofuran-2-yl]ceph-3-em-4-carboxylate] were, in that order, 8 µg/mL and 0.25 µg/mL.
